Data set [1] concerns the target T1, σ1 receptors (Mus musculus, UniProt O55242). Briefly: Competition binding against [3H]-PTZ in mouse brain membranes.
The next data set addresses NET (Mus musculus, UniProt O55192). Briefly: Secondary site spot test, [3H]-Nisoxetine. Type of data set: binding.
In data set [2] the target is T2, σ2 receptors (Mus musculus, UniProt Q8VD00).
T2 sequence (Q8VD00 1-176): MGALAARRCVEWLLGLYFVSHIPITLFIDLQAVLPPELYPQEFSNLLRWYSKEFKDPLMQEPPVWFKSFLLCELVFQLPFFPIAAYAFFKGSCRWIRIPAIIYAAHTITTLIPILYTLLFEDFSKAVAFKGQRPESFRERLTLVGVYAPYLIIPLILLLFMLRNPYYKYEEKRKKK
Description: Competition binding against [3H]-DTG with PTZ mask in mouse brain membranes.

In another data set the target is Mu (μ) opioid receptor (Cavia porcellus, UniProt A0ACM8Q262). Description: Secondary site spot test, [3H]-DAMGO. It counts as binding, guinea pig.
Mu (μ) opioid receptor, sequence (A0ACM8Q262 1-400): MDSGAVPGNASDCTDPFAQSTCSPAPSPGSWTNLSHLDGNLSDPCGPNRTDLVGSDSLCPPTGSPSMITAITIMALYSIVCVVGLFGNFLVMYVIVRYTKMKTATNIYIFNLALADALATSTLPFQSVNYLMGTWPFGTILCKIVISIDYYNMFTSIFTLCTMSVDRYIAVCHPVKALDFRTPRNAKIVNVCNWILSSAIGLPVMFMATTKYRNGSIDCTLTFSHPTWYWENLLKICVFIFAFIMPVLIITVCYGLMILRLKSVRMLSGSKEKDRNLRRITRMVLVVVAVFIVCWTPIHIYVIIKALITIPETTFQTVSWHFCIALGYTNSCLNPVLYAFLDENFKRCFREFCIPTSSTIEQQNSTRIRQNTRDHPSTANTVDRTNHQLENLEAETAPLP
For another data set, the target named is DAT (Mus musculus, UniProt Q61327). Description: Secondary site spot test, [125I]-RTI-121. It counts as binding.
DAT, sequence (Q61327 whole entry): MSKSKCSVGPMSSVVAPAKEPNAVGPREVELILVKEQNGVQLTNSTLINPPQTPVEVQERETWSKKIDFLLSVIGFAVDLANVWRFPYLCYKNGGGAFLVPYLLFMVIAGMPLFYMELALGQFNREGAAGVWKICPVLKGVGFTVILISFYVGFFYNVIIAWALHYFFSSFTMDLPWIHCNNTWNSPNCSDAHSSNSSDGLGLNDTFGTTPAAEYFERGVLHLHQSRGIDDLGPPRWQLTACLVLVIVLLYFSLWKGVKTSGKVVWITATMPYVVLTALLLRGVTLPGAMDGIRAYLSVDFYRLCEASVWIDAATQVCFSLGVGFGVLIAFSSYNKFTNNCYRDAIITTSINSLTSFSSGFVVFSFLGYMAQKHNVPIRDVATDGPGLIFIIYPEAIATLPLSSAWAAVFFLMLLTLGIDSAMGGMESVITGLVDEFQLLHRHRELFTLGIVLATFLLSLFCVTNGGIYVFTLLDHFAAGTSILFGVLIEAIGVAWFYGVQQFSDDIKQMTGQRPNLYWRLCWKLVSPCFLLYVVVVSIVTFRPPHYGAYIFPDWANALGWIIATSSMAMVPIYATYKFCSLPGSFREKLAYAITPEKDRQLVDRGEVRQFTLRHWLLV
In data set [3] the target is sites labeled by [125I]-E-IA-BF-PIPZE (σ1 receptors) (Mus musculus, UniProt O55242). Type of data set: binding.
sites labeled by [125I]-E-IA-BF-PIPZE (σ1 receptors), sequence (O55242 whole entry): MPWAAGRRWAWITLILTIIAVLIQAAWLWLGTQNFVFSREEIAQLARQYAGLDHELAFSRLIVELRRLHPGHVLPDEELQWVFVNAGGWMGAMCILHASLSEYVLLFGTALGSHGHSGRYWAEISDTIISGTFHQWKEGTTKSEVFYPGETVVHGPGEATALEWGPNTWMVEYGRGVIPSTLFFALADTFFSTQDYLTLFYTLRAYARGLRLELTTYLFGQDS
The next data set concerns the target SERT (Mus musculus, UniProt Q60857). Briefly: Secondary site spot test, [3H]-Paroxetine. It counts as binding.
Data set [4] addresses Kappa (κ) opioid receptor (Cavia porcellus, UniProt P41144). Description: Secondary site spot test, [3H]-U69593. Type of data set: binding, guinea pig.
Data set [5] has as its target T1, σ1 receptors. Description: In vivo specific binding and blocking by pretreatment with σ receptor ligands. The conditions noted are these: 2.5 μmol / kg i.v., mice.
Data set [6] addresses T1, σ1 receptors. Briefly: Regional brain distribution with blocking pretreatments. The conditions noted are these: 2.5 μmol / kg i.v., 60 min, nine regions. It counts as in vivo, CD-1 mouse.
Data set [7] has as its target Delta (δ) opioid receptor (Mus musculus, UniProt P32300). Briefly: Secondary site spot test, [3H]-Naltrindole. Type of data set: binding.
In data set [8] the test system is (−)-cocaine induced locomotor hyperactivity. The conditions noted are these: cited from earlier work.
For data set [9], the target named is T1, σ1 receptors. The conditions noted are these: cited from earlier work.
Data set [10] concerns the target T2, σ2 receptors. The following applies: read-out: Sigma-2, Ki; cited from earlier work.

Like-named read-outs stand apart in the source and are kept apart here.

A word on the Ki: it is the dissociation constant of the complex between target and ligand, obtained from inhibition or displacement. A word on the Hill slope: it is the slope factor of the fitted curve. What is called IC50 is the concentration needed to halve the response being measured. In general, inhibition refers to the share of the control response that was lost under treatment.

T1 sequence (O55242 whole entry): as above
SERT, sequence (Q60857 whole entry): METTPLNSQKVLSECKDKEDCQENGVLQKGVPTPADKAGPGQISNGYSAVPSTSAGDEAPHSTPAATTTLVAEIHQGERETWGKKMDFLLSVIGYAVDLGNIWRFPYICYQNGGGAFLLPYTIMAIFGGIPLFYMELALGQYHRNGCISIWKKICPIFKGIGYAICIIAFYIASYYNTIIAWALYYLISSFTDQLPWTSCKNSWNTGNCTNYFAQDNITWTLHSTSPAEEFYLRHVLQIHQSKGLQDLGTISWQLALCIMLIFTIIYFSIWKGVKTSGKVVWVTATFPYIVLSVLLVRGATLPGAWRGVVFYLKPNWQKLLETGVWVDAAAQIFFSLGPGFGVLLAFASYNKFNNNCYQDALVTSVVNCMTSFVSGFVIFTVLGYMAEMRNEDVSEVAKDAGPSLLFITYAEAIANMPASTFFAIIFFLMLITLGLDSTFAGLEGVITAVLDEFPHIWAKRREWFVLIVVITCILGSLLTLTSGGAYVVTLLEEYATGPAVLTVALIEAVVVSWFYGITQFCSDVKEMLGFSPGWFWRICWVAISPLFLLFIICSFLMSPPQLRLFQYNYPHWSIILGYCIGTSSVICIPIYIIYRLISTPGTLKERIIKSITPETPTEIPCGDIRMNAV
NET, sequence (O55192 whole entry): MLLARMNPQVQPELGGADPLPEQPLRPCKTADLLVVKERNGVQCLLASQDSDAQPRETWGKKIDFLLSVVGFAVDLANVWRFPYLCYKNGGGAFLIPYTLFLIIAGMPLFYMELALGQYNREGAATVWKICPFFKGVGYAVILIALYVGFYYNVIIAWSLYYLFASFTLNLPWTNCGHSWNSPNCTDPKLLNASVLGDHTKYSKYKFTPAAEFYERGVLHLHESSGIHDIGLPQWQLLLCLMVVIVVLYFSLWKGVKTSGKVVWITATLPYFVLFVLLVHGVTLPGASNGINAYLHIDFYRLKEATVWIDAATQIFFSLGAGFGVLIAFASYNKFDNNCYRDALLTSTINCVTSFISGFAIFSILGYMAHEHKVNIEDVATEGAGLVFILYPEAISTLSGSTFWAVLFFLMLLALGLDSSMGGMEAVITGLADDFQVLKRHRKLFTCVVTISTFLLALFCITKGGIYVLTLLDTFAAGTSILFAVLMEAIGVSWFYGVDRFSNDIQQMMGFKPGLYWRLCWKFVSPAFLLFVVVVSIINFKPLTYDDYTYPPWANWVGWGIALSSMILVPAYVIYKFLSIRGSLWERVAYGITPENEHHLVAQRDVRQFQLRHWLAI
Kappa (κ) opioid receptor, sequence (P41144 whole entry): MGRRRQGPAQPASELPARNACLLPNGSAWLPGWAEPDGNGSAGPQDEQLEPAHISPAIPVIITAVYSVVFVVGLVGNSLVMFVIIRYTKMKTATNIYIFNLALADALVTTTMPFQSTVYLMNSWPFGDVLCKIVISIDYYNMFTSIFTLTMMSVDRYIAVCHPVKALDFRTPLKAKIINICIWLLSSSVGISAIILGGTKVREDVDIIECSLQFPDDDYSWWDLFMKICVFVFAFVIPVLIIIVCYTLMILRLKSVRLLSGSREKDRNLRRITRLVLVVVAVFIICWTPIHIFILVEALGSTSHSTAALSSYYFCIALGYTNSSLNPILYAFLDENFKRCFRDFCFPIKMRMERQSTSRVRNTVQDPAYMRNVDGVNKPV
Delta (δ) opioid receptor, sequence (P32300 whole entry): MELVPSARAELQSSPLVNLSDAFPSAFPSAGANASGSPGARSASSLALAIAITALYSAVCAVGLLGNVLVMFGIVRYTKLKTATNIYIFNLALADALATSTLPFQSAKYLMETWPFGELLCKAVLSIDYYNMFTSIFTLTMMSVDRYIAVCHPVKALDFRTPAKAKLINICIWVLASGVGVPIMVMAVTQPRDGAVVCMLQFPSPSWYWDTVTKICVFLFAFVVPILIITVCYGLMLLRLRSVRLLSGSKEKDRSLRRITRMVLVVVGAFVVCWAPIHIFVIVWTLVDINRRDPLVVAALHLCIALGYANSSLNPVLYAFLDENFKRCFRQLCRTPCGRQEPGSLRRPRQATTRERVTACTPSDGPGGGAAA

Consider `I/C=C/CN1CCN(CCc2ccc3c(c2)CCO3)CC1` [E-IA-BF-PE-PIPZE, (E)-1-(2-(2,3-dihydrobenzofuran-5-yl)ethyl)-4-(iodoallyl)piperazine], for which the Ki is 0.43 ± 0.03 nM on σ1 receptors [1], 74.5 ± 4.44 nM on σ2 receptors [2] and 1.1 ± 0.1 nM in data set [3]. The compound also returned a Hill slope on σ1 receptors [1] ([3H]-PTZ competition) of −1.23 ± 0.04. In addition, the “Selectivity: σ2/σ1 (Ki ratio)” value on σ1 receptors [1] (σ2 Ki / σ1 Ki) is 173. The IC50 on NET was over 10000 nM; on Mu (μ) opioid receptor (read-out: IC50 Mu, [3H]-DAMGO 0.6 nM, guinea pig membranes) it was over 5000 nM; at DAT, over 10000 nM; in data set [3], 1.7 ± 0.2 nM; at SERT, over 10000 nM; in data set [4], over 5000 nM. Besides, the IC50 in data set [7] is over 5000 nM. For the same compound, the inhibition at 10 µM was at most 50% at NET (read-out: inhibition of specific radioligand binding, NET); at most 50% at DAT (read-out: inhibition of specific radioligand binding, DAT); at most 50% at SERT (read-out: inhibition of specific radioligand binding, SERT). Moreover, the inhibition at 5 µM on Mu (μ) opioid receptor (read-out: inhibition of specific radioligand binding, μ) is at most 50%; in data set [4] (read-out: inhibition of specific radioligand binding, κ) it was at most 50%; in data set [7] (read-out: inhibition of specific radioligand binding, δ), at most 50%. The “Hill (nH)” value in [3] (means ± SEM (n = 3 – 6)) stood at 1.0 ± 0.1. Also, at σ1 receptors [5], the “adverse effects or abnormal behaviors” value is “No adverse effects or abnormal behaviors”. Besides, the “reduction of radioligand uptake across brain regions” value at σ1 receptors [6] is on record as “over 92%”.

With `COc1ccc(CCN2CCN(C/C=C/I)CC2)cc1OC` [E-IA-DM-PE-PIPZE, (E)-1-(2-(2,3-dimethoxy-5-yl)ethyl)-4-(iodoallyl)piperazine], the “effect on (−)-cocaine induced locomotor hyperactivity” value in data set [8] is listed as “partially attenuates”. Also, the “Selectivity: σ2/σ1” value on σ1 receptors [9] is listed as 216. In addition, the inhibitory constant (Ki) at σ1 receptors [9] (read-out: Sigma-1, Ki) is 6.7 ± 0.9 nM; at σ2 receptors [10], 1450 ± 220 nM.

The record behind these values is publication PMC5161541 (Nuclear medicine and biology, 2016).
